Measured values taken from patent US20240407365A1, “Method for Treating Technical Products” (THOR GMBH, priority 2021, published 2024).

Experiment: amount of CMIT remaining in water-based dispersion paint after storage, HPLC
Type: physicochemical
Settings: paint pH 8.3
Method: The amounts of 5-chloro-2-methyl-4-isothiazolinone and zinc oxide specified in Table 1 were added to and homogeneously incorporated in aliquots of a commercially available, preservative-free, water-based matt interior dispersion paint (pH: 8.3; binder: ethylene vinyl acetate; pigment volume concentration (PVC): 77%). After 30 to 45 minutes, the sodium pyrithione was then added. The controls used were samples containing chloro-2-methyl-4-isothiazolinone and sodium pyrithione without zinc oxide and samples containing chloro-2-methyl-4-isothiazolinone only. The samples were stored at 21° C. and, after the time intervals specified in Table 1 (4 hours, 24 hours, 72 hours, 168 hours and 336 hours), the amount of chloro-2-methyl-4-isothiazolinone remaining in the paint was determined with the aid of HPLC analyses.

[1] = NaPy 0 ppm, CMIT 25 ppm, ZnO 0 ppm
[2] = NaPy 0 ppm, CMIT 50 ppm, ZnO 0 ppm
[3] = NaPy 0 ppm, CMIT 100 ppm, ZnO 0 ppm
[4] = NaPy 130 ppm, CMIT 25 ppm, ZnO 0 ppm
[5] = NaPy 130 ppm, CMIT 25 ppm, ZnO 75 ppm
[6] = NaPy 130 ppm, CMIT 25 ppm, ZnO 150 ppm
[7] = NaPy 130 ppm, CMIT 25 ppm, ZnO 225 ppm
[8] = NaPy 130 ppm, CMIT 25 ppm, ZnO 300 ppm
[9] = NaPy 130 ppm, CMIT 25 ppm, ZnO 375 ppm
[10] = NaPy 130 ppm, CMIT 25 ppm, ZnO 450 ppm
[11] = NaPy 130 ppm, CMIT 25 ppm, ZnO 525 ppm
[12] = NaPy 130 ppm, CMIT 50 ppm, ZnO 0 ppm
[13] = NaPy 130 ppm, CMIT 50 ppm, ZnO 75 ppm
[14] = NaPy 130 ppm, CMIT 50 ppm, ZnO 150 ppm

Compound: Cn1sc(Cl)cc1=O [CIMT, 5-chloro-2-methyl-4-isothiazolinone]
- CIMT [ppm] after storage at 21° C. 4 [h] [1]: 25 ppm
- CIMT [ppm] after storage at 21° C. 24 h [1]: 25 ppm
- CIMT [ppm] after storage at 21° C. 72 h [1]: 24 ppm
- CIMT [ppm] after storage at 21° C. 168 h [1]: 24 ppm
- CIMT [ppm] after storage at 21° C. 336 h [1]: 22 ppm
- CIMT [ppm] after storage at 21° C. 4 [h] [2]: 50 ppm
- CIMT [ppm] after storage at 21° C. 24 h [2]: 50 ppm
- CIMT [ppm] after storage at 21° C. 72 h [2]: 49 ppm
- CIMT [ppm] after storage at 21° C. 168 h [2]: 47 ppm
- CIMT [ppm] after storage at 21° C. 336 h [2]: 47 ppm
- CIMT [ppm] after storage at 21° C. 4 [h] [3]: 101 ppm
- CIMT [ppm] after storage at 21° C. 24 h [3]: 100 ppm
- CIMT [ppm] after storage at 21° C. 72 h [3]: 101 ppm
- CIMT [ppm] after storage at 21° C. 168 h [3]: 99 ppm
- CIMT [ppm] after storage at 21° C. 336 h [3]: 95 ppm
- CIMT [ppm] after storage at 21° C. 4 [h] [4]: <LOQ (below the limit of determination (<0.5 ppm CMIT))
- CIMT [ppm] after storage at 21° C. 24 h [4]: <LOQ (below the limit of determination (<0.5 ppm CMIT))
- CIMT [ppm] after storage at 21° C. 72 h [4]: <LOQ (below the limit of determination (<0.5 ppm CMIT))
- CIMT [ppm] after storage at 21° C. 168 h [4]: <LOQ (below the limit of determination (<0.5 ppm CMIT))
- CIMT [ppm] after storage at 21° C. 336 h [4]: <LOQ (below the limit of determination (<0.5 ppm CMIT))
- CIMT [ppm] after storage at 21° C. 4 [h] [5]: 13 ppm
- CIMT [ppm] after storage at 21° C. 24 h [5]: 4 ppm
- CIMT [ppm] after storage at 21° C. 72 h [5]: 1 ppm
- CIMT [ppm] after storage at 21° C. 168 h [5]: <LOQ (below the limit of determination (<0.5 ppm CMIT))
- CIMT [ppm] after storage at 21° C. 336 h [5]: <LOQ (below the limit of determination (<0.5 ppm CMIT))
- CIMT [ppm] after storage at 21° C. 4 [h] [6]: 19 ppm
- CIMT [ppm] after storage at 21° C. 24 h [6]: 11 ppm
- CIMT [ppm] after storage at 21° C. 72 h [6]: 6 ppm
- CIMT [ppm] after storage at 21° C. 168 h [6]: 2 ppm
- CIMT [ppm] after storage at 21° C. 336 h [6]: <LOQ (below the limit of determination (<0.5 ppm CMIT))
- CIMT [ppm] after storage at 21° C. 4 [h] [7]: 23 ppm
- CIMT [ppm] after storage at 21° C. 24 h [7]: 17 ppm
- CIMT [ppm] after storage at 21° C. 72 h [7]: 11 ppm
- CIMT [ppm] after storage at 21° C. 168 h [7]: 7 ppm
- CIMT [ppm] after storage at 21° C. 336 h [7]: 2 ppm
- CIMT [ppm] after storage at 21° C. 4 [h] [8]: 24 ppm
- CIMT [ppm] after storage at 21° C. 24 h [8]: 21 ppm
- CIMT [ppm] after storage at 21° C. 72 h [8]: 14 ppm
- CIMT [ppm] after storage at 21° C. 168 h [8]: 12 ppm
- CIMT [ppm] after storage at 21° C. 336 h [8]: 6 ppm
- CIMT [ppm] after storage at 21° C. 4 [h] [9]: 25 ppm
- CIMT [ppm] after storage at 21° C. 24 h [9]: 22 ppm
- CIMT [ppm] after storage at 21° C. 72 h [9]: 20 ppm
- CIMT [ppm] after storage at 21° C. 168 h [9]: 15 ppm
- CIMT [ppm] after storage at 21° C. 336 h [9]: 10 ppm
- CIMT [ppm] after storage at 21° C. 4 [h] [10]: 26 ppm
- CIMT [ppm] after storage at 21° C. 24 h [10]: 22 ppm
- CIMT [ppm] after storage at 21° C. 72 h [10]: 22 ppm
- CIMT [ppm] after storage at 21° C. 168 h [10]: 19 ppm
- CIMT [ppm] after storage at 21° C. 336 h [10]: 12 ppm
- CIMT [ppm] after storage at 21° C. 4 [h] [11]: 24 ppm
- CIMT [ppm] after storage at 21° C. 24 h [11]: 21 ppm
- CIMT [ppm] after storage at 21° C. 72 h [11]: 21 ppm
- CIMT [ppm] after storage at 21° C. 168 h [11]: 18 ppm
- CIMT [ppm] after storage at 21° C. 336 h [11]: 14 ppm
- CIMT [ppm] after storage at 21° C. 4 [h] [12]: 3 ppm
- CIMT [ppm] after storage at 21° C. 24 h [12]: <LOQ (below the limit of determination (<0.5 ppm CMIT))
- CIMT [ppm] after storage at 21° C. 72 h [12]: <LOQ (below the limit of determination (<0.5 ppm CMIT))
- CIMT [ppm] after storage at 21° C. 168 h [12]: <LOQ (below the limit of determination (<0.5 ppm CMIT))
- CIMT [ppm] after storage at 21° C. 336 h [12]: <LOQ (below the limit of determination (<0.5 ppm CMIT))
- CIMT [ppm] after storage at 21° C. 4 [h] [13]: 21 ppm
- CIMT [ppm] after storage at 21° C. 24 h [13]: 9 ppm
- CIMT [ppm] after storage at 21° C. 72 h [13]: 2 ppm
- CIMT [ppm] after storage at 21° C. 168 h [13]: <LOQ (below the limit of determination (<0.5 ppm CMIT))
- CIMT [ppm] after storage at 21° C. 336 h [13]: <LOQ (below the limit of determination (<0.5 ppm CMIT))
- CIMT [ppm] after storage at 21° C. 4 [h] [14]: 31 ppm
- CIMT [ppm] after storage at 21° C. 24 h [14]: 19 ppm
